# Assay results reported in the supplement of paper PMC9701192.
# Where a name gives a salt, the structure may show the parent alone. ± gives the uncertainty stated by the source.
# Legend:
# Assay in all cases: mass response relative to vehicle control (EMD distance of treated vs reference mass distribution minus control baseline) (% of mean reference cell mass); higher = larger drug-induced change in single-cell mass distribution (stronger response)
# [1] = tested on: MM1S ATCC
# Description: (§1)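 Cancer cell lines were treated in vitro with drugs at the listed doses (about 24 h; 0.25% DMSO vehicle). Single-cell buoyant mass was measured on suspended microchannel resonator instruments with CNN image curation, 2500 cells per condition. Mass response is the Earth Mover's Distance to vehicle-treated reference cells as % of mean reference mass.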
# [2] = tested on: MOLM-13
# Description: as §1
# [3] = tested on: MDA-MB-361
# Description: as §1
# [4] = tested on: PC9
# Description: as §1
structure (smiles),measurement,setting,value
CC(C)C[C@H](NC(=O)CNC(=O)c1cc(Cl)ccc1Cl)B(O)O [Ixazomib],mass response,[1]; 0.00025 µM,2.33 ± 1.5
same,mass response,[1]; 0.0025 µM,-0.705 ± 2.2
same,mass response,[1]; 0.025 µM,10.7 ± 0.64
same,mass response,[1]; 0.25 µM,9.05 ± 2.4
CNC(=O)c1cc(Oc2ccc(NC(=O)Nc3ccc(Cl)c(C(F)(F)F)c3)c(F)c2)ccn1 [Regorafenib],mass response,[1]; 0.04 µM,1.84 ± 1.4
same,mass response,[1]; 0.4 µM,0.733 ± 1.4
same,mass response,[1]; 4 µM,10.9 ± 0.83
same,mass response,[1]; 20 µM,44.9 ± 2.9
CC1(COc2ccc3c(c2)ncn3-c2ccc3cccc(N4CCC(N)CC4)c3n2)COC1 [Crenolanib],mass response,[2]; 0.001 µM,3.34 ± 2
same,mass response,[2]; 0.01 µM,31 ± 1.7
same,mass response,[2]; 0.1 µM,37.3 ± 0.76
same,mass response,[2]; 1 µM,37.99 ± 0.31
CO[C@@H]1[C@H](N(C)C(=O)c2ccccc2)C[C@H]2O[C@]1(C)n1c3ccccc3c3c4c(c5c6ccccc6n2c5c31)C(=O)NC4 [Midostaurin],mass response,[2]; 0.02 µM,14.9 ± 0.91
same,mass response,[2]; 0.2 µM,38.7 ± 1.5
same,mass response,[2]; 2 µM,27.7 ± 0.98
same,mass response,[2]; 20 µM,30.2 ± 2.4
O=C(c1cc(Cc2n[nH]c(=O)c3ccccc23)ccc1F)N1CCN(C(=O)C2CC2)CC1 [Olaparib],mass response,[3]; 0.1 µM,1.31 ± 3.8
same,mass response,[3]; 1 µM,1.01 ± 3.2
same,mass response,[3]; 10 µM,17.9 ± 9.6
same,mass response,[3]; 0.0001 M,25 ± 4
CN(C)C/C=C/C(=O)Nc1cc2c(Nc3ccc(F)c(Cl)c3)ncnc2cc1O[C@H]1CCOC1 [Afatinib],mass response,[4]; 0.01 µM,13.3 ± 4
same,mass response,[4]; 0.1 µM,15.8 ± 1.3
same,mass response,[4]; 1 µM,19.1 ± 1.6
same,mass response,[4]; 10 µM,30.7 ± 4
Nc1ncn([C@H]2C[C@H](O)[C@@H](CO)O2)c(=O)n1 [Decitabine],mass response,[2]; 0.25 µM,7.58 ± 1.9
same,mass response,[2]; 2.5 µM,9.65 ± 3.3
same,mass response,[2]; 25 µM,9.39 ± 2.4
same,mass response,[2]; 0.00025 M,8.64 ± 2.2
COc1cccc2c1C(=O)c1c(O)c3c(c(O)c1C2=O)C[C@@](O)(C(=O)CO)C[C@@H]3O[C@H]1C[C@H](N)[C@H](O)[C@H](C)O1 [Doxorubicin],mass response,[4]; 0.15 µM,33.3 ± 6.1
same,mass response,[4]; 0.625 µM,22.9 ± 4.7
same,mass response,[4]; 2.5 µM,6.7 ± 3
same,mass response,[4]; 10 µM,40.9 ± 3.2
CC(C)C[C@H](NC(=O)[C@H](CCc1ccccc1)NC(=O)CN1CCOCC1)C(=O)N[C@@H](Cc1ccccc1)C(=O)N[C@@H](CC(C)C)C(=O)[C@@]1(C)CO1 [Carfilzomib],mass response,[1]; 0.005 µM,10.7 ± 4.9
same,mass response,[1]; 0.05 µM,31 ± 2.6
same,mass response,[1]; 0.1 µM,34.7 ± 2
same,mass response,[1]; 0.5 µM,33.4 ± 2.5
C[C@@H]1C[C@H]2[C@@H]3CCC4=CC(=O)C=C[C@]4(C)[C@@]3(F)[C@@H](O)C[C@]2(C)[C@@]1(O)C(=O)CO [Dexamethasone],mass response,[1]; 0.02 µM,13.7 ± 1.9
same,mass response,[1]; 0.2 µM,14.8 ± 2.1
same,mass response,[1]; 2 µM,14.5 ± 2
same,mass response,[1]; 20 µM,13.5 ± 2
Nc1cccc2c1C(=O)N(C1CCC(=O)NC1=O)C2=O (stereo unspecified) [Pomalidomide],mass response,[1]; 0.02 µM,8.45 ± 2.3
same,mass response,[1]; 0.2 µM,18.1 ± 5.3
same,mass response,[1]; 2 µM,17.1 ± 5.7
same,mass response,[1]; 20 µM,16.7 ± 3.2
CCC1=C[C@@H]2CN(C1)Cc1c([nH]c3ccccc13)[C@@](C(=O)OC)(c1cc3c(cc1OC)N(C)[C@H]1[C@@](O)(C(=O)OC)[C@H](OC(C)=O)[C@]4(CC)C=CCN5CC[C@]31[C@@H]54)C2 [Vinorelbine Tartrate],mass response,[3]; 0.002 µM,0.302 ± 2.8
same,mass response,[3]; 0.02 µM,13 ± 0.57
same,mass response,[3]; 0.2 µM,14.6 ± 1.1
same,mass response,[3]; 2 µM,13.1 ± 1.9
C=CC(=O)Nc1cc(Nc2nccc(-c3cn(C)c4ccccc34)n2)c(OC)cc1N(C)CCN(C)C [Osimertinib],mass response,[4]; 0.05 µM,11.8 ± 3
same,mass response,[4]; 0.5 µM,9.37 ± 6.4
same,mass response,[4]; 5 µM,7.62 ± 2.4
same,mass response,[4]; 50 µM,65.8 ± 0.9
CC(=O)O[C@H]1C(=O)[C@@]2(C)[C@H]([C@H](OC(=O)c3ccccc3)[C@]3(O)C[C@H](OC(=O)[C@H](O)[C@@H](NC(=O)c4ccccc4)c4ccccc4)C(C)=C1C3(C)C)[C@]1(OC(C)=O)CO[C@@H]1C[C@@H]2O [Paclitaxel],mass response,[4]; 0.005 µM,0.247 ± 0.78
same,mass response,[4]; 0.025 µM,26.9 ± 1.3
same,mass response,[4]; 0.05 µM,30.7 ± 0.9
same,mass response,[4]; 0.1 µM,30.6 ± 1.4
CS(=O)(=O)CCNCc1ccc(-c2ccc3ncnc(Nc4ccc(OCc5cccc(F)c5)c(Cl)c4)c3c2)o1 [Lapatinib],mass response,[3]; 0.1 µM,0.147 ± 0.5
same,mass response,[3]; 1 µM,6.42 ± 1.7
same,mass response,[3]; 10 µM,19.6 ± 1.1
same,mass response,[3]; 0.0001 M,19.5 ± 2.4
COc1cc([C@@H]2c3cc4c(cc3[C@@H](O[C@@H]3O[C@@H]5CO[C@@H](C)O[C@H]5[C@H](O)[C@H]3O)[C@H]3COC(=O)[C@H]23)OCO4)cc(OC)c1O [Etoposide],mass response,[4]; 0.01 µM,0.492 ± 1.6
same,mass response,[4]; 0.1 µM,0.732 ± 2.1
same,mass response,[4]; 1 µM,12.3 ± 1
same,mass response,[4]; 10 µM,36.2 ± 0.97
COc1cc2ncnc(Nc3ccc(F)c(Cl)c3)c2cc1OCCCN1CCOCC1 [Gefitinib],mass response,[4]; 0.05 µM,7.94 ± 10
same,mass response,[4]; 0.5 µM,23.1 ± 11
same,mass response,[4]; 5 µM,35.1 ± 9.7
same,mass response,[4]; 50 µM,81.56 ± 0.43
Nc1nc2[nH]cc(CCc3ccc(C(=O)N[C@@H](CCC(=O)O)C(=O)O)cc3)c2c(=O)[nH]1 [Pemetrexed],mass response,[3]; 0.5 µM,14.4 ± 3.6
same,mass response,[3]; 1 µM,15.2 ± 2.1
same,mass response,[3]; 5 µM,19 ± 2.9
same,mass response,[3]; 50 µM,21.8 ± 2.8
O=C(/C=C\n1cnc(-c2cc(C(F)(F)F)cc(C(F)(F)F)c2)n1)NNc1cnccn1 [Selinexor],mass response,[1]; 0.005 µM,-0.878 ± 0.35
same,mass response,[1]; 0.05 µM,4.05 ± 1.2
same,mass response,[1]; 0.5 µM,12.7 ± 3.1
same,mass response,[1]; 5 µM,12 ± 3.1
